Data as given in patent US4543350A, “Carcinostatic agent” (Sanyo Machine Works, Ltd., priority 1982, dated 1985).
Where “and” joins values, the source holds several entries; their conditions need not be identical. Identical values can stand only once.

Key:
Water solubility = format: physicochemical
[1] = test system: Colon 26 (Balb/C Colon cancer); assay: Colon 26 transplanted subcutaneously to Balb/C mice: tumor weight and survival rate; format: in vivo; conditions: Colon 26 s.c. in Balb/C mice; Eisenin i.p. 5 mg per animal every other day three times
Source text: (§1) The animals used as experimental materials were Balb/C mice and nude mice, and the tumors used were Colon (Balb/C Colon cancer) and Sarcoma 180.
a. 1,000,000 Cells of Colon 26 were transplanted subcutaneously to Balb/C mice.

Colon 26 = assay: Sensitivity test: inclusion of tritium thymidine, uridine and leucine into cultured Colon 26; format: cell-based; conditions: for Average Counts per Minute, Leucine / Counts per Minute in the Case of Leucine: leucine (protein); for Average Counts per Minute, Leucine / Counts per Minute in the Case of Leucine / Average Counts per Minute, Tritium Thymidine / Counts per Minute in the Case of Tritium Thymidine / Average Counts per Minute, Uridine / Counts per Minute in the Case of Uridine: 3 days; for Counts per Minute in the Case of Leucine / Counts per Minute in the Case of Tritium Thymidine / Counts per Minute in the Case of Uridine: single counts; for Average Counts per Minute, Tritium Thymidine / Counts per Minute in the Case of Tritium Thymidine: tritium thymidine (DNA); for Average Counts per Minute, Uridine / Counts per Minute in the Case of Uridine: uridine (RNA)
Description: (1) Inhibition Index (I.I.) is calculated from the following equation, an
where I.I. exceeds 75%, it is judged effective.
- (2) Measurement is made on a scintillation counter.

Sarcoma 180 = Sarcoma 180 transplanted subcutaneously to Balb/C mice: tumor weight; format: in vivo; conditions: Sarcoma 180 s.c. in Balb/C mice; Eisenin i.p. and orally 5 mg per animal every other day three times
Source text: as §1

[2] = test system: BW 5174 (thymoma of AKR mouse); assay: Cytotoxicity test (51Cr release) of spleen and intraperitoneal cells of Eisenin-administered mice; format: cell-based
Source text: Further, the target cell employed was BW 5174 (thymoma of AKR mouse). The spleen cells and the intraperitoneal cells were respectively divided into the adherent cells and the non-adherent cells, and cytotoxicity was examined in each case.
(1) Percent Cytotoxicity (%) in Table 3 is based on the following
(2) Measurement is made by ^51 Cr release assay. (3) Acute Toxicit

[3] = Effective dosage estimated from the various test results; format: in vivo; conditions: average body weight of Balb/C mice taken as 20 g
Balb/C mice = assay: Acute toxicity test; format: in vivo; conditions: for No. of Death: 9 Balb/C mice

**Q.** Which results are given for L-Pyroglu-L-Gln-L-Ala [Eisenin]?
**A.** solubility in water (Water solubility): water soluble; anti-tumor effect (weight of the tumor, survival rate; FIG. 1, FIG. 2) [1]: an anti-tumor effect of Eisenin is recognized; direct effect on tumor cells (sensitivity test; I.I. above 75% is judged effective) (Colon 26; Colon 26 culture, all concentrations and labels): no direct effect of Eisenin on tumor cells; Average Counts per Minute, Leucine (Colon 26; Eisenin 0.0001 mg/ml): 12232 CPM; Counts per Minute in the Case of Leucine (Colon 26; Eisenin 0.0001 mg/ml): 12952 CPM and 11936 CPM and 11808 CPM and 10952 CPM; Average Counts per Minute, Leucine (Colon 26; Eisenin 0.001 mg/ml): 13743 CPM; Counts per Minute in the Case of Leucine (Colon 26; Eisenin 0.001 mg/ml): 13620 CPM and 14230 CPM and 13379 CPM and 11355 CPM; Average Counts per Minute, Leucine (Colon 26; Eisenin 0.01 mg/ml): 11478 CPM; Counts per Minute in the Case of Leucine (Colon 26; Eisenin 0.01 mg/ml): 12285 CPM and 11020 CPM and 12097 CPM and 11318 CPM; Average Counts per Minute, Leucine (Colon 26; Eisenin 0.1 mg/ml): 11318 CPM; Counts per Minute in the Case of Leucine (Colon 26; Eisenin 0.1 mg/ml): 13311 CPM and 12566 CPM and 8076 CPM and 7076 CPM; Average Counts per Minute, Leucine (Colon 26; Eisenin 1.0 mg/ml): 6521 CPM; Counts per Minute in the Case of Leucine (Colon 26; Eisenin 1.0 mg/ml): 6826 CPM and 6150 CPM and 6587 CPM; Average Counts per Minute, Tritium Thymidine (Colon 26; Eisenin 0.0001 mg/ml): 229878 CPM; Counts per Minute in the Case of Tritium Thymidine (Colon 26; Eisenin 0.0001 mg/ml): 231236 CPM and 219336 CPM and 224786 CPM and 233612 CPM; Average Counts per Minute, Tritium Thymidine (Colon 26; Eisenin 0.001 mg/ml): 218332 CPM; Counts per Minute in the Case of Tritium Thymidine (Colon 26; Eisenin 0.001 mg/ml): 220010 CPM and 213816 CPM and 221170 CPM and 213017 CPM; Average Counts per Minute, Tritium Thymidine (Colon 26; Eisenin 0.01 mg/ml): 238823 CPM; Counts per Minute in the Case of Tritium Thymidine (Colon 26; Eisenin 0.01 mg/ml): 207474 CPM and 229569 CPM and 240628 CPM and 246273 CPM; Average Counts per Minute, Tritium Thymidine (Colon 26; Eisenin 0.1 mg/ml): 198381 CPM; Counts per Minute in the Case of Tritium Thymidine (Colon 26; Eisenin 0.1 mg/ml): 190120 CPM and 203872 CPM and 201151 CPM and 223845 CPM; Average Counts per Minute, Tritium Thymidine (Colon 26; Eisenin 1.0 mg/ml): 170297 CPM; Counts per Minute in the Case of Tritium Thymidine (Colon 26; Eisenin 1.0 mg/ml): 140430 CPM and 171170 CPM and 163554 CPM and 176167 CPM; Average Counts per Minute, Uridine (Colon 26; Eisenin 0.0001 mg/ml): 30793 CPM; Counts per Minute in the Case of Uridine (Colon 26; Eisenin 0.0001 mg/ml): 32836 CPM and 29585 CPM and 24135 CPM and 29958 CPM; Average Counts per Minute, Uridine (Colon 26; Eisenin 0.001 mg/ml): 31169 CPM; Counts per Minute in the Case of Uridine (Colon 26; Eisenin 0.001 mg/ml): 39415 CPM and 31675 CPM and 28671 CPM and 33161 CPM; Average Counts per Minute, Uridine (Colon 26; Eisenin 0.01 mg/ml): 33039 CPM; Counts per Minute in the Case of Uridine (Colon 26; Eisenin 0.01 mg/ml): 37043 CPM and 33211 CPM and 31498 CPM and 34408 CPM; Average Counts per Minute, Uridine (Colon 26; Eisenin 0.1 mg/ml): 25426 CPM; Counts per Minute in the Case of Uridine (Colon 26; Eisenin 0.1 mg/ml): 32774 CPM and 25271 CPM and 24222 CPM and 26786 CPM; Average Counts per Minute, Uridine (Colon 26; Eisenin 1.0 mg/ml): 21107 CPM; Counts per Minute in the Case of Uridine (Colon 26; Eisenin 1.0 mg/ml): 27088 CPM and 20903 CPM and 19954 CPM and 22463 CPM; anti-tumor effect (weight of the tumor; FIG. 5) (Sarcoma 180): a similar anti-tumor effect is recognized; difference in cytotoxicity versus control group, intraperitoneal cells [2]: a significant difference; effective dosage as estimated from the test results [3]: about 15 mg per 20 g; No. of Death (Balb/C mice; Eisenin 3 g/kg intraperitoneally): 1/9; No. of Death (Balb/C mice; Eisenin 6 g/kg intraperitoneally): 7/9; LD50 (Balb/C mice; intraperitoneal, Balb/C mice): ~5000 mg/kg
